Measurements: ChEMBL document CHEMBL1125661, “2-Alkoxyadenosines: potent and selective agonists at the coronary artery A2 adenosine receptor” (J Med Chem, 1991)

Legend:
Adenosine receptor A1 [1] = biological target: T1, Adenosine receptor A1 (Cavia porcellus, UniProt P47745)
T1 sequence (P47745 whole entry): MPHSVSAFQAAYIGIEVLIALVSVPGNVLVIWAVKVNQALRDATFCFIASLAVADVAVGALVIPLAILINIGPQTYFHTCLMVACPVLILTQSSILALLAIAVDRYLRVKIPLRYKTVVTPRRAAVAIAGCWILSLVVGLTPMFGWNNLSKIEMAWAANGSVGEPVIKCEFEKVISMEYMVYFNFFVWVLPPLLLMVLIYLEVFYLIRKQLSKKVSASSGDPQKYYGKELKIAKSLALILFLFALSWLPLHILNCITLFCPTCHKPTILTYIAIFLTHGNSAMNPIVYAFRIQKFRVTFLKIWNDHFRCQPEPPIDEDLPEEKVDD
Description: Prolongation of the stimulus-QRS interval by 50% of the maximum response at the adenosine A1 receptor in langendorff guinea pig heart preparation

Adenosine A2 receptor [2] = biological target: T2, Adenosine A2 receptor (Homo sapiens, UniProt P29275+P29274)
Description: Coronary arteries vasodilation at the adenosine A2 receptor in langendorff guinea pig heart preparation

Adenosine receptor A1 [3] = biological target: T1, Adenosine receptor A1; experiment: Prolongation of the stimulus-QRS interval by 50% of the maximum response at the Adenosine A1 receptor in langendorff guinea pig heart preparation; assay type: functional
Adenosine A2 receptor [4] = biological target: T2, Adenosine A2 receptor; remark: listed apart in the source
Description: Coronary arteries vasodilation at the Adenosine A2 receptor in langendorff guinea pig heart preparation

Compound	EC50 (Adenosine receptor A1 [1])	-Log EC50 (Adenosine A2 receptor [2])	EC50 (Adenosine receptor A1 [3])	-Log EC50 (Adenosine A2 receptor [4])
Nc1nc(Nc2ccccc2)nc2c1ncn2[C@@H]1O[C@H](CO)[C@@H](O)[C@H]1O	12.6 µM	7.74		
COc1cc(OC)cc(C(CNc2ncnc3c2ncn3[C@@H]2O[C@H](CO)[C@@H](O)[C@H]2O)c2ccccc2C)c1 (stereo partly specified)	5.62 µM	9.35		
O=C(Nc1ncnc2c1ncn2[C@@H]1O[C@H](CO)[C@@H](O)[C@H]1O)[C@H]1C[C@H]2CC[C@@H]1C2			0.00537 µM	7.08
COc1nc(N)c2ncn([C@H]3O[C@@H](CO)[C@H](O)[C@@H]3O)c2n1	9.33 µM	6.16		
Nc1nc(OC2CCCC2)nc2c1ncn2[C@H]1O[C@@H](CO)[C@H](O)[C@@H]1O			79.4 µM	7.04
Nc1nc(Cl)nc2c1ncn2[C@@H]1O[C@H](CO)[C@@H](O)[C@H]1O	0.191 µM	7.6		
CC1(C)C2CCC(C(=O)CCOc3nc(N)c4ncn(C5O[C@@H](CO)[C@H](O)[C@@H]5O)c4n3)C1C2 (stereo partly specified)			4.47 µM	8.24
CC#CCCOc1nc(N)c2ncn(C3O[C@@H](CO)[C@H](O)[C@@H]3O)c2n1 (stereo partly specified)			63.1 µM	7.56
CCCCOc1nc(N)c2ncn(C3O[C@@H](CO)[C@H](O)[C@@H]3O)c2n1 (stereo partly specified)			37.2 µM	7.28
Nc1nc(OCCCCC2CCCCC2)nc2c1ncn2C1O[C@@H](CO)[C@H](O)[C@@H]1O (stereo partly specified)			2.63 µM	8.71
Nc1nc(OCCC2CCCC2)nc2c1ncn2C1O[C@@H](CO)[C@H](O)[C@@H]1O (stereo partly specified)	14.1 µM	8.41		
CCC(CC)COc1nc(N)c2ncn(C3O[C@@H](CO)[C@H](O)[C@@H]3O)c2n1 (stereo partly specified)			35.5 µM	6.54
CC(C)CCCOc1nc(N)c2ncn(C3O[C@@H](CO)[C@H](O)[C@@H]3O)c2n1 (stereo partly specified)			22.9 µM	8.45
CC(C)CCOc1nc(N)c2ncn(C3O[C@@H](CO)[C@H](O)[C@@H]3O)c2n1 (stereo partly specified)			66.1 µM	7.61
CC(C)Oc1nc(N)c2ncn(C3O[C@@H](CO)[C@H](O)[C@@H]3O)c2n1 (stereo partly specified)			224 µM	5.86
CCC(CC)CCOc1nc(N)c2ncn(C3O[C@@H](CO)[C@H](O)[C@@H]3O)c2n1 (stereo partly specified)			15.8 µM	7.8

Compound	EC50 (Adenosine receptor A1 [1])	-Log EC50 (Adenosine A2 receptor [2])	EC50 (Adenosine receptor A1 [3])	-Log EC50 (Adenosine A2 receptor [4])
CC(C)COc1nc(N)c2ncn(C3O[C@@H](CO)[C@H](O)[C@@H]3O)c2n1 (stereo partly specified)			107 µM	7.15
CCOc1nc(N)c2ncn(C3O[C@@H](CO)[C@H](O)[C@@H]3O)c2n1 (stereo partly specified)			79.4 µM	6.44
Nc1nc(OCCC(=O)[C@H]2CC3CCC2C3)nc2c1ncn2C1O[C@@H](CO)[C@H](O)[C@@H]1O (stereo partly specified)	8.71 µM	8.35		
Nc1nc(OCCCC2CCCCC2)nc2c1ncn2C1O[C@@H](CO)[C@H](O)[C@@H]1O (stereo partly specified)	3.72 µM	8.67		
CCCCCOc1nc(N)c2ncn(C3O[C@@H](CO)[C@H](O)[C@@H]3O)c2n1 (stereo partly specified)			45.7 µM	7.94
CCCCCCOc1nc(N)c2ncn(C3O[C@@H](CO)[C@H](O)[C@@H]3O)c2n1 (stereo partly specified)			13.8 µM	8.42
CC(C)N(c1ccccc1)c1ncnc2c1ncn2C1O[C@H](CO)[C@@H](O)[C@H]1O (stereo partly specified)			0.0339 µM	7.88
Nc1nc(OC2CCCCC2)nc2c1ncn2C1O[C@@H](CO)[C@H](O)[C@@H]1O (stereo partly specified)			100 µM	6.18
Nc1nc(OCC2CCCCC2)nc2c1ncn2C1O[C@@H](CO)[C@H](O)[C@@H]1O (stereo partly specified)	50.1 µM	6.75		
CCC(C)Oc1nc(N)c2ncn(C3O[C@@H](CO)[C@H](O)[C@@H]3O)c2n1 (stereo partly specified)			891 µM	5.45
Nc1nc(OCCO)nc2c1ncn2C1O[C@@H](CO)[C@H](O)[C@@H]1O (stereo partly specified)			2.19 µM	7.18
Nc1nc(OCCC2CCCCC2)nc2c1ncn2C1O[C@@H](CO)[C@H](O)[C@@H]1O (stereo partly specified)	8.71 µM	8.99		
CCCOc1nc(N)c2ncn(C3O[C@@H](CO)[C@H](O)[C@@H]3O)c2n1 (stereo partly specified)			148 µM	7.28
CCNC(=O)[C@H]1O[C@@H](n2cnc3c(N)nc(NCCc4ccc(CCC(=O)O)cc4)nc32)[C@H](O)[C@@H]1O [CGS-21680]			24.5 µM	
Nc1nc(=O)[nH]c2c1ncn2[C@@H]1O[C@H](CO)[C@@H](O)[C@H]1O [ISOGUANOSINE]			1.15 µM	7.1
